≈ marks a conversion by molar mass, not a printed value.
How the values were obtained:
physchem = assay: physchem
Description: The batch volume was made up to 100 ml with addition of 70/30 TBA/water. […] 5 ml aliquots were placed in flint vials and lyophilized. Upon completion of lyophilization, the contents of the vial were reconstituted with 5 ml of Water for Injection.

Thromboxane B2 = details: in 5 minutes of post bolus injection; 5 ml of 100 mg/ml ASA injected in less than 2 minutes; cited from earlier work
[1] = cited from earlier work
[2] = Bulk solution stability of Example 3C at 25° C.; type: physicochemical
Description: All three solutions were filtered and 5 ml each placed in a Type I flint vials and lyophilized. […] The lyophilized cakes in all vials were shrunken and collapsed. […] Since lyophilization of the ASA-lysine solution was carried out at about −30° C., all water was removed by sublimation at this low temperature. It is not known whether degradation took place during the lyophilization or during the preparation of the bulk solution or combination of both. Therefore, we have investigated the bulk solution stability of example 3C at 25° C.

[3] = Reconstitution of ASA lyophile with various basifying agents; type: physicochemical; details: basifying agent diluents of examples 13 and 14, without polysorbate 80
Description: One aspect of this invention was to produce a stable lyophilized product and a solvent system with sufficient bulk solution stability to withstand an aseptic processing and lyophilization process. The lyophilized products we have manufactured in most of these studies were made with 80% TBA/20% to 60% TBA/40% water solvent system and the bulk solution for lyophilization stable for 24 hours with minimal degradation. We have achieved this goal. […] The reconstitution studies were done by reconstituting a 100 mg vial with 5 ml of solution containing a buffer or a basifying agent or a combination of both.

[4] = Tonicity and pH of reconstituted solutions of ASA; type: physicochemical
Source text: Since the aspirin product will be administered via an IV bolus route, tonicity of the final reconstituted solution is acritical factor to avoid pain at the injection site.

platelet aggregation = details: following oral dosing; cited from earlier work
[5] = pH and appearance of bulk and reconstituted solutions of ASA co-lyophilized with bases in TBA/water; type: physicochemical; details: 20 mg/ml aspirin in 80% TBA/20 water
Source text: The pH of the solution was raised to 6.5 using 1N sodium hydroxide. Phase separation was observed, probably due to salting out of inorganic base from TBA/Water system. In the next trial, we first raised the pH of the solution to 5.0 using 1N sodium hydroxide, and then sodium phosphate, dibasic to raise the pH to 6.5. Sodium phosphate, dibasic was used for a better control of pH. Since we still observed phase separation it appears that inorganic bases or buffers may not be compatible with a 80% TBA/20% water system. We may require more water, for example, 70% TBA/30% water in the system to dissolve the alkalinizing agents.
The reconstituted solution pH was 4.71.
In the next trial, we investigated incorporation of […] to facilitate complete neutralization. […] Arginine was, then, slowly added to the slurry to neutralize aspirin. […] The apparent pH of the bulk solution was 6.49. 5 ml aliquots placed in flint vials and lyophilized. Upon completion of lyophilization, the content of vial was reconstituted with 5 ml of Water for Injection. […] The reconstituted solution pH was 4.8.
Based on the above studies, it was evident that larger amount of base is needed to neutralize ASA in the preferred solvent system. To incorporate more base in the bulk solution, we explored use of 60/40 TBA/water system as solvent for lyophilization. […] The apparent pH of the bulk solution was 6.31. […]

[6] = oral tablets; cited from earlier work
[7] = intravenous vs oral; cited from earlier work

tris(hydroxymethyl)aminomethane
solubility (physchem; 70/30 TBA/water, neat free base without ASA): 5000 µg/mL

CC(=O)Oc1ccccc1C(=O)O.NCCCCC(N)C(=O)O [aspirin lysine salt]
Thromboxane B2 inhibited (Thromboxane B2): greater than 95%
shelf life ([1]; Bayer sterile dry powder product): one year

NCCCC[C@H](N)C(=O)O [lysine]
solubility (physchem; organic solvent or mixture): 2000 µg/mL (≈ 13.7 mM)

o-acetylsalicylic acid [Aspirin]
Area % of Salicylic Acid ([2]; 4 hours): about 9 Area %
Area % of Salicylic Acid ([2]; Initial): about 3 Area %
appearance of reconstituted solution [3]: did not show any haziness
Osmolality (m.Osm/Kg) ([4]; 12 mg/mL Na2HPO4 and 27 mg/mL of Tris buffer with 0.05% Tween80, 10 mL, ASA 50 mg/mL): 717 m.Osm/Kg
Osmolality (m.Osm/Kg) ([4]; 17.5 mg/mL Tris Buffer with 0.05% Tween80, 20 mL, ASA 25 mg/mL): 269 m.Osm/Kg
Osmolality (m.Osm/Kg) ([4]; 20 mg/mL Na2HPO4 with 0.05% Tween80, 25 mL, ASA 20 mg/mL): 481 m.Osm/Kg
Osmolality (m.Osm/Kg) ([4]; 30 mg/mL of lysine and 7.5 mg/mL of Tris buffer, 20 mL, ASA 25 mg/mL): 338 m.Osm/Kg
Osmolality (m.Osm/Kg) ([4]; 34 mg/mL Tris Buffer with 0.05% Tween80, 10 mL, ASA 50 mg/mL): 549 m.Osm/Kg
Osmolality (m.Osm/Kg) ([4]; 34 mg/mL Tris Buffer, 10 mL, ASA 50 mg/mL): 540 m.Osm/Kg
Osmolality (m.Osm/Kg) ([4]; 40 mg/mL L-Lysine, 20 mL, ASA 25 mg/mL): 380 m.Osm/Kg
Osmolality (m.Osm/Kg) ([4]; 40 mg/mL of L-Lysine with 0.05% Tween80, 20 mL, ASA 25 mg/mL): 388 m.Osm/Kg
Osmolality (m.Osm/Kg) ([4]; 50 mg/mL Na2HPO4 with 0.05% Tween80, 10 mL, ASA 50 mg/mL): 1172 m.Osm/Kg
Osmolality (m.Osm/Kg) ([4]; 68 mg/mL Tris Buffer with 0.05% Tween80, 10 mL, ASA 100 mg/mL): 1060 m.Osm/Kg
Osmolality (m.Osm/Kg) ([4]; 68 mg/mL Tris Buffer with 0.05% Tween80, Aspirin API 1 g, 10 mL, ASA 100 mg/mL): 1036 m.Osm/Kg
onset of inhibition of platelet aggregation (platelet aggregation): approximately 40 minutes
apparent pH of the bulk solution [5]: 2.9
initial onset of pain relief [6]: about 30 minutes
pH of the solution ([1]; aqueous aspirin solution): about 2.5
time to 10% of potency loss ([1]; concentrated aqueous bulk solution): about 1.3 hours
degradation rate ([1]; pH 2.5): about 2 % per day
effectiveness of intravenously administered solution versus orally administered equal amount [7]: four times as high
